Data taken from ChEMBL document CHEMBL1201862, “PubChem BioAssay data set” (2004).
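1) Cells in 96-well plates. 2) Compound, 48 h, 5 concentrations. 3) Linear interpolation between surrounding doses. 4) Unreached endpoint = highest concentration. GI50 = concentration required for 50% inhibition of growth.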 Active and inactive are the calls of the source. Rule as the data show it: active = GI50 up to about 1.1 µM and inactive = higher.

What was measured:
Test in all cases: NCI anticancer screen, dose series, 48 h
HCT-15 = tested on: HCT-15
K562 = tested on: K562
NCI-H460 = tested on: NCI-H460
HCC 2998 = tested on: HCC 2998
OVCAR-8 = tested on: OVCAR-8
SF-295 = tested on: SF-295
SK-OV-3 = tested on: SK-OV-3
NCI-H23 = tested on: NCI-H23
BT-549 = tested on: BT-549
OVCAR-3 = tested on: OVCAR-3
IGROV-1 = tested on: IGROV-1
Malme-3M = tested on: Malme-3M
MOLT-4 = tested on: MOLT-4
RXF 393 = tested on: RXF 393
HCT-116 = tested on: HCT-116
SK-MEL-2 = tested on: SK-MEL-2
PC-3 = tested on: PC-3
SF-539 = tested on: SF-539
UO-31 = tested on: UO-31
HL-60 = tested on: HL-60

SMILES	GI50 (HCT-15)	GI50 (K562)	GI50 (NCI-H460)	GI50 (HCC 2998)	GI50 (OVCAR-8)	GI50 (SF-295)	GI50 (SK-OV-3)	GI50 (NCI-H23)	GI50 (BT-549)	GI50 (OVCAR-3)	GI50 (IGROV-1)	GI50 (Malme-3M)	GI50 (MOLT-4)	GI50 (RXF 393)	GI50 (HCT-116)	GI50 (SK-MEL-2)	GI50 (PC-3)	GI50 (SF-539)	GI50 (UO-31)	GI50 (HL-60)
Nc1ncnc2c1ncn2CCCCC(=O)O	> 100 µM	> 100 µM (inactive)	> 100 µM (inactive)	> 100 µM (inactive)	> 100 µM (inactive)	> 100 µM (inactive)	> 100 µM (inactive)	> 100 µM (inactive)	> 100 µM (inactive)	> 100 µM (inactive)	> 100 µM (inactive)	> 100 µM (inactive)	> 100 µM (inactive)	> 100 µM (inactive)	> 100 µM (inactive)	> 100 µM (inactive)	> 100 µM (inactive)	> 100 µM (inactive)	> 100 µM (inactive)	–
COc1ccc2oc(=N)c(C(=O)Nc3ccccc3)cc2c1	31 µM	1.26 µM (inactive)	45.5 µM (inactive)	–	19.2 µM (inactive)	16 µM (inactive)	10.9 µM (inactive)	15.2 µM (inactive)	17.7 µM (inactive)	30.5 µM (inactive)	17.9 µM (inactive)	15.9 µM (inactive)	13.8 µM (inactive)	17.3 µM (inactive)	25.7 µM (inactive)	17.2 µM (inactive)	32.9 µM (inactive)	20.3 µM (inactive)	45 µM (inactive)	–
Cc1ccsc1/C=N/Nc1cc(C)c2cccc(C)c2n1	–	–	–	> 100 µM (inactive)	> 100 µM (inactive)	9.33 µM (inactive)	84.5 µM (inactive)	> 100 µM (inactive)	> 100 µM (inactive)	> 100 µM (inactive)	1.6 µM (inactive)	–	–	–	–	> 100 µM (inactive)	4.89 µM (inactive)	–	–	3.78 µM (inactive)
O=C(OCC(OC(=O)c1ccccc1)C1CC(C2(O)CCCCC2)C(=O)O1)c1ccccc1 (stereo not given)	> 25 µM	15.9 µM (inactive)	9.18 µM (inactive)	> 25 µM (inactive)	> 25 µM (inactive)	> 25 µM (inactive)	> 25 µM (inactive)	0.05 µM (active)	0.478 µM (active)	> 25 µM (inactive)	> 25 µM (inactive)	> 25 µM (inactive)	6.64 µM (inactive)	> 25 µM (inactive)	> 25 µM (inactive)	> 25 µM (inactive)	> 25 µM (inactive)	> 25 µM (inactive)	0.0181 µM (active)	–
C[C@]12CC[C@H]3[C@@H](CCC4=CC(=O)CC[C@@H]43)[C@@H]1CC[C@@H]2OC1(O)C(=O)c2ccccc2C1=O	37.8 µM	35.3 µM (inactive)	67 µM (inactive)	> 100 µM (inactive)	45.2 µM (inactive)	> 100 µM (inactive)	> 100 µM (inactive)	27.1 µM (inactive)	66.8 µM (inactive)	39.4 µM (inactive)	69.7 µM (inactive)	34 µM (inactive)	33.3 µM (inactive)	33.3 µM (inactive)	14.5 µM (inactive)	75.9 µM (inactive)	60.5 µM (inactive)	32.4 µM (inactive)	26.2 µM (inactive)	–
N#Cc1nc(CCN2C(=O)c3ccccc3C2=O)oc1N	> 100 µM	> 100 µM (inactive)	> 100 µM (inactive)	0.0845 µM (active)	> 100 µM (inactive)	> 100 µM (inactive)	> 100 µM (inactive)	> 100 µM (inactive)	> 100 µM (inactive)	> 100 µM (inactive)	> 100 µM (inactive)	> 100 µM (inactive)	> 100 µM (inactive)	> 100 µM (inactive)	> 100 µM (inactive)	> 100 µM (inactive)	> 100 µM (inactive)	> 100 µM (inactive)	> 100 µM (inactive)	–
CN(C)CCNC(=O)c1cccc2c(NCCN(C)C)c3ccccc3nc12	3.63 µM	1.73 µM (inactive)	1.37 µM (inactive)	1.91 µM (inactive)	3.19 µM (inactive)	4.93 µM (inactive)	7.4 µM (inactive)	2.33 µM (inactive)	7.59 µM (inactive)	2.39 µM (inactive)	2.68 µM (inactive)	3.85 µM (inactive)	1 µM (active)	3.6 µM (inactive)	1.48 µM (inactive)	5.28 µM (inactive)	2.42 µM (inactive)	3.05 µM (inactive)	2.92 µM (inactive)	–
O=c1ccc2c(Cl)sc(Cl)c2[nH]1	> 100 µM	> 100 µM (inactive)	> 100 µM (inactive)	> 100 µM (inactive)	> 100 µM (inactive)	> 100 µM (inactive)	> 100 µM (inactive)	> 100 µM (inactive)	> 100 µM (inactive)	> 100 µM (inactive)	> 100 µM (inactive)	43.8 µM (inactive)	> 100 µM (inactive)	> 100 µM (inactive)	> 100 µM (inactive)	> 100 µM (inactive)	> 100 µM (inactive)	–	> 100 µM (inactive)	–
CC1Cc2c(Br)nc(N)nc2NC1=O (stereo not given)	> 100 µM	> 100 µM (inactive)	> 100 µM (inactive)	> 100 µM (inactive)	> 100 µM (inactive)	> 100 µM (inactive)	> 100 µM (inactive)	> 100 µM (inactive)	> 100 µM (inactive)	> 100 µM (inactive)	> 100 µM (inactive)	> 100 µM (inactive)	> 100 µM (inactive)	–	> 100 µM (inactive)	> 100 µM (inactive)	> 100 µM (inactive)	> 100 µM (inactive)	> 100 µM (inactive)	–
O=C1c2c(Br)sc(Br)c2[C@H]2OC(=S)N[C@@H]12	1.88 µM	2.29 µM (inactive)	16.6 µM (inactive)	10.6 µM (inactive)	3.5 µM (inactive)	15.2 µM (inactive)	15.7 µM (inactive)	5.15 µM (inactive)	10 µM (inactive)	2.6 µM (inactive)	10.1 µM (inactive)	3.73 µM (inactive)	2.17 µM (inactive)	3.14 µM (inactive)	2.81 µM (inactive)	13.6 µM (inactive)	4.07 µM (inactive)	16.6 µM (inactive)	1.75 µM (inactive)	–
NS(=O)(=O)c1cc(S(N)(=O)=O)c(NC(=O)N(c2ccccc2)c2ccccc2)c(Cl)c1Cl	20.3 µM	20.1 µM (inactive)	34.9 µM (inactive)	19.2 µM (inactive)	13.2 µM (inactive)	30.2 µM (inactive)	24 µM (inactive)	20 µM (inactive)	15.9 µM (inactive)	18.5 µM (inactive)	8.13 µM (inactive)	–	12.4 µM (inactive)	–	38.7 µM (inactive)	22.6 µM (inactive)	24 µM (inactive)	–	20.2 µM (inactive)	24.8 µM (inactive)
CCOC(=O)Nn1c(C)nnc1-c1ccccc1	> 100 µM	> 100 µM (inactive)	> 100 µM (inactive)	> 100 µM (inactive)	> 100 µM (inactive)	> 100 µM (inactive)	61.7 µM (inactive)	> 100 µM (inactive)	> 100 µM (inactive)	> 100 µM (inactive)	> 100 µM (inactive)	> 100 µM (inactive)	> 100 µM (inactive)	> 100 µM (inactive)	> 100 µM (inactive)	> 100 µM (inactive)	> 100 µM (inactive)	> 100 µM (inactive)	> 100 µM (inactive)	–
